Patent US20060211002A1, “Antibiotic susceptibility and virulence factor detection in Pseudomonas aeruginosa” (priority 2005, published 2006)
Read-outs that look alike come from different tables or passages of the source.

Assays:
[1] = system: 3 consecutive Pseudomonas aeruginosa isolates from the same patient; test: Phenotypic susceptibility profile of 3 consecutive isolates from the same patient; assay type: cell-based; conditions: S/R phenotype
Protocol: (§1) The antibiotic susceptibility was determined with the NEG MIC Type 30 panel on the MicroScan WalkAway®-96 SI system. The MICs were interpreted according to the NCCLS guidelines.

[2] = system: 60 clinical P. aeruginosa isolates; test: Antibiotic susceptibility testing, NEG MIC Type 30 panel on MicroScan WalkAway-96 SI, MICs interpreted according to NCCLS guidelines; assay type: cell-based, Pseudomonas aeruginosa; conditions: for MIC: Pseudomonas aeruginosa, read-out: 60 MIC
Description: The wild-type reference strain P. aeruginosa PAO1 was obtained from the ATCC (AT47085). The other P. aeruginosa strains were collected from patients at the Robert Bosch Hospital in Stuttgart, Germany. They were recovered from respiratory samples (n=51), swabs (n=5), urine (n=2) and faeces (n=2). All isolates were identified with the API 20NE system (bioMerieux, Marcy l'Etoile, France) and the NEG Breakpoint Combo Type 30 panel on the MicroScan WalkAway®-96 SI system (Dade Behring, Liederbach, Germany). All bacterial strains were either routinely cultured at 37° C. on Mueller-Hinton (MH) agar or grown in Luria Bertani broth (LB).
as §1
The test collective of P. aeruginosa isolates was recovered from three intensive care units (ICU) or other hospital wards as far as an unusual multidrug resistance was observed. […] 4.

[3] = system: 60 clinical P. aeruginosa isolates; parameters: species or system Pseudomonas aeruginosa; conditions: predicted from mutations and resistance genes found by array in 60 isolates
Protocol: The 60 P. aeruginosa isolates were tested with the array applying the same hybridization conditions. Tab.
In order to compare genotype and phenotype based resistance profiles, we calculated a cumulative resistance rate against different groups of antibiotics based on the array data (Tab. 6).

[4] = Table 3, P. aeruginosa test collective
[5] = Table 6, phenotypic resistance rate
[6] = Table 6, MIC tied to the resistant isolates, NCCLS interpretation

NC[C@H]1O[C@H](O[C@H]2[C@H](O)[C@@H](O[C@H]3O[C@H](CO)[C@@H](O)[C@H](N)[C@H]3O)[C@H](N)C[C@@H]2N)[C@H](N)C[C@@H]1O [Tobramycin, tobramycin]
Susceptibility profile, Isolate 2 ([1]; collected one week after the first isolate): susceptible
Susceptibility profile, Isolate 1 ([1]; first isolate): susceptible
Susceptibility profile, Isolate 3 ([1]; last of three isolates collected within three weeks): resistance
MIC [2]: > 8 µg/mL
% of resistant isolates out of 60 [2, 4]: 10%
Number of resistant isolates out of 60 [2, 4]: 6
Number of resistant isolates out of 60 ([2]; Table 6, phenotypic resistance): 6
% of resistant isolates out of 60 [2, 5]: 10%

CCN1CCN(C(=O)N[C@@H](C(=O)N[C@@H]2C(=O)N3[C@@H]2SC(C)(C)[C@@H]3C(=O)O)c2ccccc2)C(=O)C1=O [Piperacillin, piperacillin]
Cumulative resistance predicttion deduced from array [3]: 38%
MIC [2, 6]: > 64 µg/mL
% of resistant isolates out of 60 [2, 4]: 35%
Number of resistant isolates out of 60 [2, 4]: 21
Number of resistant isolates out of 60 ([2]; Table 6, phenotypic resistance): 21
% of resistant isolates out of 60 [2, 5]: 35%

C[C@H]1COc2c(N3CCN(C)CC3)c(F)cc3c(=O)c(C(=O)O)cn1c23 [Levofloxacin, levofloxacin]
MIC [2]: > 4 µg/mL
% of resistant isolates out of 60 [2, 4]: 43%
Number of resistant isolates out of 60 [2, 4]: 26
Number of resistant isolates out of 60 ([2]; Table 6, phenotypic resistance): 26
% of resistant isolates out of 60 [2, 5]: 43%

C[C@@H](O)[C@H]1C(=O)N2C(C(=O)O)=C(SCCN=CN)C[C@H]12 [Imipenem, imipenem]
MIC [2]: > 8 µg/mL
% of resistant isolates out of 60 [2, 4]: 45%
Number of resistant isolates out of 60 [2, 4]: 27
Number of resistant isolates out of 60 ([2]; Table 6, phenotypic resistance): 27
% of resistant isolates out of 60 [2, 5]: 45%
susceptibility rate ([2]; test collective of isolates): less than 55%

NCC[C@H](O)C(=O)N[C@@H]1C[C@H](N)[C@@H](O[C@H]2O[C@H](CN)[C@@H](O)[C@H](O)[C@H]2O)[C@H](O)[C@H]1O[C@H]1O[C@H](CO)[C@@H](O)[C@H](N)[C@H]1O [Amikacin, amikacin]
MIC [2]: > 32 µg/mL
% of resistant isolates out of 60 [2, 4]: 17%
Number of resistant isolates out of 60 [2, 4]: 10
Number of resistant isolates out of 60 ([2]; Table 6, phenotypic resistance): 10
% of resistant isolates out of 60 [2, 5]: 17%

gentamicin
Cumulative resistance predicttion deduced from array [3]: 45%
% of resistant isolates out of 60 [2, 4]: 37%
Number of resistant isolates out of 60 [2, 4]: 22
60 MIC [2, 6]: >8 µg/mL
Number of resistant isolates out of 60 ([2]; Table 6, phenotypic resistance): 22
% of resistant isolates out of 60 [2, 5]: 37%

colistin
Cumulative resistance predicttion deduced from array [3]: 0%
% of resistant isolates out of 60 [2, 4]: 0%
Number of resistant isolates out of 60 [2, 4]: 0
Number of resistant isolates out of 60 ([2]; Table 6, phenotypic resistance): 0
% of resistant isolates out of 60 [2, 5]: 0%
resistance rate ([2]; test collective of isolates): 0%

CC(C)(O/N=C(\C(=O)N[C@@H]1C(=O)N2C(C(=O)[O-])=C(C[n+]3ccccc3)CS[C@H]12)c1csc(N)n1)C(=O)O [Ceftazidim, ceftazidime]
% of resistant isolates out of 60 [2, 4]: 33%
Number of resistant isolates out of 60 [2, 4]: 20
60 MIC [2, 6]: >16 µg/mL
Number of resistant isolates out of 60 ([2]; Table 6, phenotypic resistance): 20
% of resistant isolates out of 60 [2, 5]: 33%
